Source: ChEMBL document CHEMBL1641533, “A facile, click chemistry-based approach to assembling fluorescent chemosensors for protein tyrosine kinases” (Bioorg Med Chem Lett, 2011)
The source made the active and inactive calls. No cut-off for these calls is given here. Starred links: 1 amine or outer side, 2 acyl side, 3 side chain; linkers in the order of their positions; H or OH if unused. Non-standard residues stand in square brackets, D forms with d. Residues, ends and D or L forms follow the SMILES beside them. X2 = CCN1C(=O)c2cccc3c(-n4cc(C[C@H](N[*:1])C(=O)[*:2])nn4)ccc(c23)C1=O; X1 = O=C([C@H](Cc1cn(-c2ccc3ccc4cccc5ccc2c3c45)nn1)N[*:1])[*:2]; X5 = Cc1cc(=O)[nH]c2cc(-n3cc(C[C@H](N[*:1])C(=O)[*:2])nn3)ccc12; X4 = O=C([C@H](Cc1cn(-c2cc3ccc(O)cc3oc2=O)nn1)N[*:1])[*:2]; X3 = O=C([C@H](Cc1cn(-c2cccc3ccccc23)nn1)N[*:1])[*:2]

Assays:
[1] = biological target: Tyrosine-protein kinase Lyn (Homo sapiens) (UniProt P07948); assay: Binding affinity to Lyn assessed as increase of fluorescence after 60 mins relative to control
[2] = biological target: Tyrosine-protein kinase Lyn (Homo sapiens) (UniProt P07948); assay: Induction of Lyn phosphorylation in human K562 CML cells assessed as peptide substrate consumption at 25 uM after 60 mins; format: cell-based
[3] = biological target: Tyrosine-protein kinase Lyn (Homo sapiens) (UniProt P07948); assay: Induction of Lyn phosphorylation in human K562 CML cells assessed as peptide substrate consumption at 25 uM after 40 mins; format: cell-based
[4] = biological target: Tyrosine-protein kinase Lyn (Homo sapiens) (UniProt P07948); assay: Binding affinity to Lyn in human K562 CML cells assessed as increase of fluorescence after 60 mins in presence of SFK inhibitor SU6656; format: cell-based
[5] = biological target: Tyrosine-protein kinase Lyn (Homo sapiens) (UniProt P07948); assay: Binding affinity to Lyn in human K562 CML cells assessed as increase of fluorescence; format: cell-based; settings: TDE = time-dependent effect
[6] = biological target: Tyrosine-protein kinase Lyn (Homo sapiens) (UniProt P07948); assay: Induction of Lyn phosphorylation in human K562 CML cells assessed as peptide substrate consumption at 25 uM after 10 mins; format: cell-based
[7] = biological target: Tyrosine-protein kinase Lyn (Homo sapiens) (UniProt P07948); assay: Induction of Lyn phosphorylation in human K562 CML cells assessed as peptide substrate consumption at 25 uM after 60 mins in presence of Bcr-Abl inhibitor Imatinib; format: cell-based
[8] = biological target: Tyrosine-protein kinase Lyn (Homo sapiens) (UniProt P07948); assay: Induction of Lyn phosphorylation in human K562 CML cells assessed as peptide substrate consumption at 25 uM after 20 mins in presence of Bcr-Abl inhibitor Imatinib; format: cell-based
[9] = biological target: Tyrosine-protein kinase Lyn (Homo sapiens) (UniProt P07948); assay: Induction of Lyn phosphorylation in human K562 CML cells assessed as peptide substrate consumption at 25 uM after 20 mins; format: cell-based
[10] = biological target: Tyrosine-protein kinase Lyn (Homo sapiens) (UniProt P07948); assay: Induction of Lyn phosphorylation in human K562 CML cells assessed as peptide substrate consumption at 25 uM after 10 mins in presence of Bcr-Abl inhibitor Imatinib; format: cell-based
[11] = biological target: Tyrosine-protein kinase Lyn (Homo sapiens) (UniProt P07948); assay: Induction of Lyn phosphorylation in human K562 CML cells assessed as peptide substrate consumption at 25 uM after 40 mins in presence of Bcr-Abl inhibitor Imatinib; format: cell-based
[12] = biological target: Tyrosine-protein kinase Lyn (Homo sapiens) (UniProt P07948); assay: Binding affinity to Lyn assessed as increase of fluorescence after 60 mins by HPLC analysis
[13] = biological target: Tyrosine-protein kinase Lyn (Homo sapiens) (UniProt P07948); assay: Binding affinity to Lyn in human K562 CML cells assessed as increase of fluorescence after 60 mins in presence of Bcr-Abl inhibitor Imatinib; format: cell-based

Chain of Tyrosine-protein kinase Lyn (Homo sapiens) (P07948 2-512 limits assumed): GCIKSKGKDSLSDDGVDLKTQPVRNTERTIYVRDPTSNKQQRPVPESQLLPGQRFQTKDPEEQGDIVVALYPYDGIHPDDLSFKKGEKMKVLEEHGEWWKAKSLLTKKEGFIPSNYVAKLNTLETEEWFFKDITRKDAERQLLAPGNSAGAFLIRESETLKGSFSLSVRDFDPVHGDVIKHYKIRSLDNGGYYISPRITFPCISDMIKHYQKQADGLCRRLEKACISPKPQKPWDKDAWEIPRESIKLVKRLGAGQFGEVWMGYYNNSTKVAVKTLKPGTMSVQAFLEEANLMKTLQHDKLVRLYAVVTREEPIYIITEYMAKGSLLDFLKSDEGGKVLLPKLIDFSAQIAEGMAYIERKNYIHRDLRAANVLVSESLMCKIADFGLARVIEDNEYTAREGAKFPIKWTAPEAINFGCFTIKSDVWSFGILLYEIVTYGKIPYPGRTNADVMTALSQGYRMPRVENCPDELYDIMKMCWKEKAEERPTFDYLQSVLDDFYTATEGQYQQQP

CC[C@H](C)[C@H](NC(=O)[C@H](CCC(=O)O)NC(=O)[C@H](CCC(=O)O)NC(=O)[C@H](CCC(=O)O)NC(=O)[C@H](C)N)C(=O)N[C@@H](Cc1ccc(O)cc1)C(=O)NCC(=O)N[C@@H](CCC(=O)O)C(=O)N[C@@H](Cc1cn(CCNS(=O)(=O)c2cccc3c(N(C)C)cccc23)nn1)C(=O)N[C@@H](CCC(=O)O)C(=O)N[C@@H](C)C(=O)N[C@@H](CCCCN)C(=O)N[C@@H](CCCCN)C(=O)N[C@@H](CCCCN)C(=O)N[C@@H](CCCCN)C(N)=O
fold change (FC) [1]: 0

CC[C@H](C)[C@H](NC(=O)[C@H](CCC(=O)O)NC(=O)[C@H](CCC(=O)O)NC(=O)[C@H](CCC(=O)O)NC(=O)[C@H](C)N)C(=O)N[C@@H](Cc1ccc(O)cc1)C(=O)NCC(=O)N[C@@H](CCC(=O)O)C(=O)N[C@@H](Cc1cn(Cc2cc(=O)oc3cc(N)ccc23)nn1)C(=O)N[C@@H](CCC(=O)O)C(=O)N[C@@H](C)C(=O)N[C@@H](CCCCN)C(=O)N[C@@H](CCCCN)C(=O)N[C@@H](CCCCN)C(=O)N[C@@H](CCCCN)C(N)=O
fold change (FC) [1]: 1.3

CC[C@H](C)[C@H](NC(=O)[C@H](CCC(=O)O)NC(=O)[C@H](CCC(=O)O)NC(=O)[C@H](CCC(=O)O)NC(=O)[C@H](C)N)C(=O)N[C@@H](Cc1ccc(O)cc1)C(=O)NCC(=O)N[C@@H](CCC(=O)O)C(=O)N[C@@H](Cc1cn(Cc2cc(=O)oc3cc(NC(C)=O)ccc23)nn1)C(=O)N[C@@H](CCC(=O)O)C(=O)N[C@@H](C)C(=O)N[C@@H](CCCCN)C(=O)N[C@@H](CCCCN)C(=O)N[C@@H](CCCCN)C(=O)N[C@@H](CCCCN)C(N)=O
fold change (FC) [1]: 1.3

CC[C@H](C)[C@H](NC(=O)[C@H](CCC(=O)O)NC(=O)[C@H](CCC(=O)O)NC(=O)[C@H](CCC(=O)O)NC(=O)[C@H](C)N)C(=O)N[C@@H](Cc1ccc(O)cc1)C(=O)NCC(=O)N[C@@H](CCC(=O)O)C(=O)N[C@@H](Cc1cn(-c2ccc3ccc4cccc5ccc2c3c45)nn1)C(=O)N[C@@H](CCC(=O)O)C(=O)N[C@@H](C)C(=O)N[C@@H](CCCCN)C(=O)N[C@@H](CCCCN)C(=O)N[C@@H](CCCCN)C(=O)N[C@@H](CCCCN)C(N)=O (H-AEEEIYGE[X1]EAKKKK-NH2)
Activity [2]: 4.24% | Activity [3]: 2.01% | Activity [4]: inactive | Activity [5]: tde | Activity [6]: 1.35% | Activity [7]: 0.41% | Activity [8]: 0.25% | Activity [9]: 1.67% | Activity [10]: 0.18% | Activity [11]: 0.33% | fold change (FC) [12]: 4 | fold change (FC) [1]: 4 | Activity [13]: inactive

CC[C@H](C)[C@H](NC(=O)[C@H](CCC(=O)O)NC(=O)[C@H](CCC(=O)O)NC(=O)[C@H](CCC(=O)O)NC(=O)[C@H](C)N)C(=O)N[C@@H](Cc1ccc(O)cc1)C(=O)NCC(=O)N[C@@H](CCC(=O)O)C(=O)N[C@@H](Cc1cn(-c2ccc3c4c(cccc24)C(=O)N(CC)C3=O)nn1)C(=O)N[C@@H](CCC(=O)O)C(=O)N[C@@H](C)C(=O)N[C@@H](CCCCN)C(=O)N[C@@H](CCCCN)C(=O)N[C@@H](CCCCN)C(=O)N[C@@H](CCCCN)C(N)=O (H-AEEEIYGE[X2]EAKKKK-NH2)
fold change (FC) [1]: 2.5

CC[C@H](C)[C@H](NC(=O)[C@H](CCC(=O)O)NC(=O)[C@H](CCC(=O)O)NC(=O)[C@H](CCC(=O)O)NC(=O)[C@H](C)N)C(=O)N[C@@H](Cc1ccc(O)cc1)C(=O)NCC(=O)N[C@@H](CCC(=O)O)C(=O)N[C@@H](Cc1cn(-c2cccc3ccccc23)nn1)C(=O)N[C@@H](CCC(=O)O)C(=O)N[C@@H](C)C(=O)N[C@@H](CCCCN)C(=O)N[C@@H](CCCCN)C(=O)N[C@@H](CCCCN)C(=O)N[C@@H](CCCCN)C(N)=O (H-AEEEIYGE[X3]EAKKKK-NH2)
fold change (FC) [1]: 0

CC[C@H](C)[C@H](NC(=O)[C@H](CCC(=O)O)NC(=O)[C@H](CCC(=O)O)NC(=O)[C@H](CCC(=O)O)NC(=O)[C@H](C)N)C(=O)N[C@@H](Cc1ccc(O)cc1)C(=O)NCC(=O)N[C@@H](CCC(=O)O)C(=O)N[C@@H](Cc1cn(-c2cc3ccc(O)cc3oc2=O)nn1)C(=O)N[C@@H](CCC(=O)O)C(=O)N[C@@H](C)C(=O)N[C@@H](CCCCN)C(=O)N[C@@H](CCCCN)C(=O)N[C@@H](CCCCN)C(=O)N[C@@H](CCCCN)C(N)=O (H-AEEEIYGE[X4]EAKKKK-NH2)
fold change (FC) [1]: 1.1

CC[C@H](C)[C@H](NC(=O)[C@H](CCC(=O)O)NC(=O)[C@H](CCC(=O)O)NC(=O)[C@H](CCC(=O)O)NC(=O)[C@H](C)N)C(=O)N[C@@H](Cc1ccc(O)cc1)C(=O)NCC(=O)N[C@@H](CCC(=O)O)C(=O)N[C@@H](Cc1cn(-c2ccc3c(C)cc(=O)[nH]c3c2)nn1)C(=O)N[C@@H](CCC(=O)O)C(=O)N[C@@H](C)C(=O)N[C@@H](CCCCN)C(=O)N[C@@H](CCCCN)C(=O)N[C@@H](CCCCN)C(=O)N[C@@H](CCCCN)C(N)=O (H-AEEEIYGE[X5]EAKKKK-NH2)
fold change (FC) [1]: 0
